From paper PMC10466331, “Fluorescence polarisation activity-based protein profiling for the identification of deoxynojirimycin-type inhibitors selective for lysosomal retaining alpha- and beta-glucosidases” (Chemical Science, 2023)
Like-named read-outs stand apart in the source and are kept apart here.

Legend:
Type in all cases: biochemical
[1] = target: T1, ER α-glucosidase GANAB (from Pompe disease Fibroblast lysates) (Homo sapiens, UniProt Q14697); test: fluorogenic substrate (4MU-α-D-glucopyranoside) assay on GANAB in Pompe fibroblast homogenates;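 further: inhibitor preincubated 30 min at 37 °C with homogenate, then GANAB activity read after 2 h with 3.0 mM fluorogenic substrate in McIlvaine buffer containing 0.1% BSA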
T1 construct: Cellular homogenates of Pompe fibroblasts (1 mg mL^−1) were used as protein source for GANAB; endogenous in cells; host or cells: Pompe disease fibroblasts (homogenate)
T1 sequence (Q14697 29-944): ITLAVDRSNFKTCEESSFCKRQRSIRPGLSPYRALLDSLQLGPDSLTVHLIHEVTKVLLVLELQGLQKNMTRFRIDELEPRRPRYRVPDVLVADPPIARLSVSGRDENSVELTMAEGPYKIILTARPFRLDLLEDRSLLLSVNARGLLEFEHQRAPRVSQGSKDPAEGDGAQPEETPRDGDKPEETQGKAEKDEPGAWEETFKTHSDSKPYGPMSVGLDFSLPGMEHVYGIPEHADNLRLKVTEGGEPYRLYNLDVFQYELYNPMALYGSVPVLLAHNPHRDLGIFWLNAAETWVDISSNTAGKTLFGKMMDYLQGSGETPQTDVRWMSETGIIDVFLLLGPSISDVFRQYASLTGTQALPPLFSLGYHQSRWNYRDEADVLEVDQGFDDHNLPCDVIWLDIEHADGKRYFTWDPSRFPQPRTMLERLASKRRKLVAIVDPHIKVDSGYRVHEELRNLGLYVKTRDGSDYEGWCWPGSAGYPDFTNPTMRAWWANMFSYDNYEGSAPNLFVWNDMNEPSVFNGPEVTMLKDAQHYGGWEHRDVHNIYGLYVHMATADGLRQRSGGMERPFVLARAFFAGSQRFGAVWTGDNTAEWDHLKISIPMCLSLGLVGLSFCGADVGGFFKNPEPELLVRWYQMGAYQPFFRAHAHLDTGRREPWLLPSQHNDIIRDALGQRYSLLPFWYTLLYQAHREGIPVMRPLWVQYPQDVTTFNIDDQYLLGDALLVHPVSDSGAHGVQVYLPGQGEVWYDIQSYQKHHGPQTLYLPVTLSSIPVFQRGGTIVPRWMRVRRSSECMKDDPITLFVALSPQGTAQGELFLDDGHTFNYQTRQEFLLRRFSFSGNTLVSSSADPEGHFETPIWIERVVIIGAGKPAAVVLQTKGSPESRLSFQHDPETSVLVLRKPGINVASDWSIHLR
T1 sequence (P14314 15-528 partner): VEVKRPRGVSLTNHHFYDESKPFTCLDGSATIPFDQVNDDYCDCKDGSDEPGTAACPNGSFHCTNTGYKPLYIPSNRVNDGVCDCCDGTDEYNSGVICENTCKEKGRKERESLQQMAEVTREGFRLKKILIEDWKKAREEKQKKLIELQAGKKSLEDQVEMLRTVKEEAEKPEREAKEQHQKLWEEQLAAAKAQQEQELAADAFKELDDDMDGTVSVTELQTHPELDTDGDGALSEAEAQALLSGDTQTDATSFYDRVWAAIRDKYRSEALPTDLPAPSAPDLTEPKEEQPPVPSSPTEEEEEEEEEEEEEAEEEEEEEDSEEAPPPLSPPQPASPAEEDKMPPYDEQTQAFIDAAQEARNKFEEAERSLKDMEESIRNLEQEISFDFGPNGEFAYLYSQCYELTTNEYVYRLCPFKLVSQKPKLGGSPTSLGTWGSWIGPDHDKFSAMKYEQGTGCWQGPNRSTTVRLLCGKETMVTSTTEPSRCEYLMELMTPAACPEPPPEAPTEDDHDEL

[2] = target: T2, recombinant human GAA (rhGAA, Myozyme) (Homo sapiens, UniProt P10253); test: competitive FluoPol-ABPP assay on rhGAA with TAMRA-ABP II; settings: for GAA FP% (residual FP-signal): library screen, 5 μM inhibitor, 25 nM ABP II;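 on all read-outs here: fluorescence polarization read at 540 nm excitation and 590 nm emission, background-corrected, normalized to uninhibited probe labelling as 100% and excess cyclosulfate as 0%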
T2 construct: purchased Genzyme

[3] = target: T3, human recombinant lysosomal α-glucosidase GAA (Myozyme) (Homo sapiens, UniProt P10253); test: fluorogenic substrate (4MU-α-D-glucopyranoside) assay on rhGAA; settings: Table S2, 4-MU alpha glucoside substrate, read-out: IC50 on rhGAA
T3 construct: purchased Genzyme

[4] = Table S2, 4-MU alpha glucoside substrate, read-out: IC50 on GANAB

| SMILES | IC50 [1, 4] | GAA FP% (residual FP-signal) [2] | IC50 [3] | other results |
| --- | --- | --- | --- | --- |
| CCCCCCN1C[C@H](O)[C@@H](O)[C@H](O)[C@H]1CO [#ID 293] |  |  |  | IC50 ([1]; Table S2, 4-MU alpha glucoside substrate, listed as 293, read-out: IC50 on GANAB): 14000 nM; GAA FP% (residual FP-signal) ([2]; listed as 293): 17%; IC50 ([3]; listed as 293): 1300 nM |
| O=C(CCCCCN1C[C@H](O)[C@@H](O)[C@H](O)[C@H]1CO)NC12CC3CC(CC(C3)C1)C2 [#ID 18] | 2400 nM | 24% | 360 nM |  |
| O=S1(=O)O[C@@H]2[C@H](O)[C@@H](O)[C@H](O)[C@@H](CO)[C@@H]2O1 [Compound 12, 1,6-epi-cyclophellitol cyclosulfate, reference compound] |  |  |  | IC50 ([2]; competitive FluoPol-ABPP, rhGAA 80 nM, ABP II 80 nM, pH 5.0, read-out: apparent IC50 (GAA)): 33 nM |
| OC[C@@H]1[C@H](O)[C@H](O)[C@@H](O)CN1CCCCCOCC12CC3CC(CC(C3)C1)C2 [#ID 150] | 12000 nM | 15% |  |  |
| CCCCCCCN1C[C@H](O)[C@@H](O)[C@H](O)[C@H]1CO [#ID 31] | 60000 nM | 35% | 910 nM |  |
| CCCCCOCCCCCN1C[C@H](O)[C@@H](O)[C@H](O)[C@H]1CO [#ID 20] |  |  |  | IC50 ([1]; Table S2, 4-MU alpha glucoside substrate, listed as 20, read-out: IC50 on GANAB): 19000 nM; GAA FP% (residual FP-signal) ([2]; listed as 20): 17%; IC50 ([3]; listed as 20): 330 nM |
| OC[C@@H]1[C@H](O)[C@@H](O)[C@H](O)CN1CCCCCOCc1ccc(-c2ccccc2)cc1 [#ID 122] |  | 35% | 1300 nM |  |
| CCCCCCCOCCCCCN1C[C@H](O)[C@@H](O)[C@H](O)[C@H]1CO [#ID 23] |  |  |  | IC50 ([1]; Table S2, 4-MU alpha glucoside substrate, listed as 23, read-out: IC50 on GANAB): 7200 nM; GAA FP% (residual FP-signal) ([2]; listed as 23): 16%; IC50 ([3]; listed as 23): 290 nM |
| OC[C@@H]1[C@@H](O)[C@H](O)[C@@H](O)CN1CCCCCOCCC12CC3CC(CC(C3)C1)C2 [#ID 170] | 1600 nM | 4.1% | 430 nM |  |
| CCCCOCCCCCN1C[C@H](O)[C@@H](O)[C@H](O)[C@H]1CO [#ID 19] |  |  |  | IC50 ([1]; Table S2, 4-MU alpha glucoside substrate, listed as 19, read-out: IC50 on GANAB): 3600 nM; GAA FP% (residual FP-signal) ([2]; listed as 19): 28%; IC50 ([3]; listed as 19): 350 nM |
| OC[C@@H]1[C@@H](O)[C@H](O)[C@@H](O)CN1CCCCCOCc1ccc(-c2cc(C(F)(F)F)cc(C(F)(F)F)c2)cc1 [#ID 308] | 14000 nM | 1.5% | 2400 nM |  |
| CCCCCN1C[C@H](O)[C@@H](O)[C@H](O)[C@H]1CO [#ID 297] |  | 12% | 1700 nM |  |
| CCCCOCCOCCN1C[C@H](O)[C@@H](O)[C@H](O)[C@H]1CO [#ID 200] |  | 46% | 3900 nM |  |
| CCCCCCN1C[C@H](O)[C@@H](O)[C@H](O)[C@H]1CO [#ID 29] |  |  |  | GAA FP% (residual FP-signal) ([2]; listed as 29): 49%; IC50 ([3]; listed as 29): 1500 nM |
| OC[C@H]1N[C@H](C/C=C/CCOCC23CC4CC(CC(C4)C2)C3)[C@H](O)[C@@H](O)[C@@H]1O [#ID 159] |  | 23% | 450 nM |  |
| OC[C@H]1NC[C@H](O)[C@@H](O)[C@H]1O [#ID 154] |  | 2.4% |  |  |
| OC[C@@H]1[C@@H](O)[C@H](O)[C@@H](O)CN1CCCCCOCC12CC3CC(CC(C3)C1)C2 [Compound 13] | 5400 nM | 8.9% |  | IC50 ([1]; 4MU-α-glucoside substrate, pH 7.0, mean ± SD, 3 technical replicates, read-out: IC50 GANAB): 5360 ± 570 nM |

Now from value to compound, other results behind:

| IC50 [1, 4] | GAA FP% (residual FP-signal) [2] | IC50 [3] | SMILES | other results |
| --- | --- | --- | --- | --- |
| 850 nM | 7.7% | 250 nM | OC[C@@H]1[C@@H](O)[C@H](O)[C@@H](O)CN1CCCCCOCc1ccc2ccccc2c1 [#ID 58] |  |
| 1600 nM | 0.5% | 37 nM | Cc1ccc(-c2ccc(COCCCCCN3C[C@H](O)[C@@H](O)[C@H](O)[C@H]3CO)cc2)cc1 [#ID 301] |  |
| 1840 nM | 9.3% | 290 nM | OC[C@@H]1[C@@H](O)[C@H](O)[C@@H](O)CN1CCCCCOCC1CCCCC1 [#ID 127] |  |
| 9000 nM | 18% | 320 nM | CCCCCCCCCN1C[C@H](O)[C@@H](O)[C@H](O)[C@H]1CO [#ID 103] |  |
| 6000 nM | 6.5% | 170 nM | CC(C)CCCC(C)C1CCC2C3CC=C4CC(OCCCCCN5CC(O)C(O)C(O)C5CO)CCC4(C)C3CCC12C (centres unmarked) [#ID 22] |  |
| 1600 nM | 0.1% | 20 nM | Cc1cccc(-c2ccc(COCCCCCN3C[C@H](O)[C@@H](O)[C@H](O)[C@H]3CO)cc2)c1 [#ID 302] |  |
| 4700 nM | 0.1% | 140 nM | OC[C@@H]1[C@@H](O)[C@H](O)[C@@H](O)CN1CCCCCOCc1ccc(-c2ccc3c(c2)OCO3)cc1 [#ID 303] |  |
| 390 nM | 0.8% | 15 nM | COc1cccc(-c2ccc(COCCCCCN3C[C@H](O)[C@@H](O)[C@H](O)[C@H]3CO)cc2)c1 [#ID 306] |  |
| 8800 nM | 0.9% | 320 nM | CC(C)=CCC/C(C)=C/CC/C(C)=C/CN1C[C@H](O)[C@@H](O)[C@H](O)[C@H]1CO [#ID 16] |  |
| 1300 nM | 0.8% | 130 nM | COc1ccccc1-c1ccc(COCCCCCN2C[C@H](O)[C@@H](O)[C@H](O)[C@H]2CO)cc1 [#ID 332] |  |
| 1300 nM | 5.6% | 280 nM | OC[C@@H]1[C@@H](O)[C@H](O)[C@@H](O)CN1CCCCCOCC12CC3CC(C1)CC(COCCCCCN1C[C@H](O)[C@@H](O)[C@H](O)[C@H]1CO)(C3)C2 [#ID 99] |  |
| 690 nM | 0.8% | 12 nM | Cc1ccccc1-c1ccc(COCCCCCN2C[C@H](O)[C@@H](O)[C@H](O)[C@H]2CO)cc1 [#ID 326] |  |
| 1000 nM | 0.9% | 24 nM | OC[C@@H]1[C@@H](O)[C@H](O)[C@@H](O)CN1CCCCCOCc1ccc(-c2cccc(F)c2)cc1 [#ID 312] |  |
| 14800 nM | 17% | 310 nM | CCCCCCOCCCCCN1C[C@H](O)[C@@H](O)[C@H](O)[C@H]1CO [#ID 21] |  |
| 580 nM | 1.8% | 290 nM | OC[C@@H]1[C@@H](O)[C@H](O)[C@@H](O)CN1CCCCCCOCC12CC3CC(CC(C3)C1)C2 [#ID 141] |  |
| 150 nM | 1.7% | 93 nM | OC[C@@H]1[C@@H](O)[C@H](O)[C@@H](O)CN1CCCCCOCc1ccc(-c2ccc(Cl)cc2)cc1 [#ID 314] |  |
| 1600 nM | 1.5% | 160 nM | OC[C@@H]1[C@@H](O)[C@H](O)[C@@H](O)CN1CCCCCOCc1ccc(-c2ccnc(F)c2)cc1 [#ID 334] |  |
| 1000 nM | 2.5% | 54 nM | N#Cc1cccc(-c2ccc(COCCCCCN3C[C@H](O)[C@@H](O)[C@H](O)[C@H]3CO)cc2)c1 [#ID 310] |  |
